From ChEMBL document CHEMBL1201862, “PubChem BioAssay data set” (2004)
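Values below derive from 48-hour exposures of cells grown in 96-well plates, with endpoints linearly interpolated between the two concentrations bracketing the appropriate inhibition level. Abbreviation: GI50, concentration required for 50% inhibition of growth.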 Active and inactive are the calls of the source. Rule as the data show it: active = GI50 up to about 1.1 µM and inactive = higher.

Assays:
Experiment in all cases: NCI anticancer screen, dose series, 48 h
NCI/ADR-RES = test system: NCI/ADR-RES
SK-MEL-28 = test system: SK-MEL-28
OVCAR-5 = test system: OVCAR-5
PC-3 = test system: PC-3
MDA-MB-231 = test system: MDA-MB-231
HCT-116 = test system: HCT-116
NCI-H23 = test system: NCI-H23
MDA-MB-435 = test system: MDA-MB-435
NCI-H522 = test system: NCI-H522
HOP-62 = test system: HOP-62
HOP-92 = test system: HOP-92
UO-31 = test system: UO-31
SNB-19 = test system: SNB-19
MCF7 = test system: MCF7
NCI-H460 = test system: NCI-H460
A498 = test system: A498
Malme-3M = test system: Malme-3M
HCC 2998 = test system: HCC 2998
SF-268 = test system: SF-268
SF-539 = test system: SF-539

Measured: GI50

O=C1NC(=S)NC(=O)C1C(c1ccc([N+](=O)[O-])cc1)C1C(=O)NC(=S)NC1=O.c1ccncc1
inactive: NCI/ADR-RES > 100 µM | SK-MEL-28 > 100 µM | OVCAR-5 > 100 µM | PC-3 > 100 µM | MDA-MB-231 > 100 µM | HCT-116 > 100 µM | NCI-H23 > 100 µM | MDA-MB-435 > 100 µM | NCI-H522 > 100 µM | HOP-62 > 100 µM | HOP-92 > 100 µM | UO-31 > 100 µM | SNB-19 > 100 µM | MCF7 > 100 µM | NCI-H460 > 100 µM | A498 > 100 µM

CCOC(=O)/C(C#N)=C/N(CC)/N=C/c1ccccc1
inactive: NCI/ADR-RES 60.4 µM | Malme-3M > 100 µM | SK-MEL-28 > 100 µM | OVCAR-5 > 100 µM | HCC 2998 > 100 µM | PC-3 > 100 µM | MDA-MB-231 > 100 µM | HCT-116 > 100 µM | NCI-H23 > 100 µM | MDA-MB-435 > 100 µM | NCI-H522 > 100 µM | HOP-92 > 100 µM | SF-268 > 100 µM | UO-31 > 100 µM | SNB-19 > 100 µM | SF-539 54.7 µM | MCF7 > 100 µM | NCI-H460 > 100 µM | A498 > 100 µM

O=C(CSc1nnc(-c2ccccn2)s1)N/N=C/c1ccccc1
inactive: NCI/ADR-RES > 100 µM | Malme-3M 97.7 µM | SK-MEL-28 > 100 µM | OVCAR-5 > 100 µM | PC-3 > 100 µM | MDA-MB-231 > 100 µM | HCT-116 > 100 µM | NCI-H23 > 100 µM | MDA-MB-435 > 100 µM | NCI-H522 > 100 µM | HOP-62 51.5 µM | HOP-92 86.7 µM | SF-268 48.9 µM | UO-31 39.4 µM | SNB-19 > 100 µM | SF-539 > 100 µM | MCF7 > 100 µM | NCI-H460 > 100 µM | A498 > 100 µM

C=C1c2nc3ccccc3n2C=C(c2ccccc2)N1c1ccc(C)cc1
inactive: NCI/ADR-RES 37.7 µM | Malme-3M > 100 µM | OVCAR-5 > 100 µM | HCC 2998 9.31 µM | PC-3 50.4 µM | MDA-MB-231 > 100 µM | HCT-116 36.9 µM | NCI-H23 58.6 µM | MDA-MB-435 33.2 µM | NCI-H522 35.1 µM | HOP-92 41.4 µM | UO-31 36.1 µM | SNB-19 > 100 µM | SF-539 63.8 µM | MCF7 29.5 µM | NCI-H460 56.6 µM | A498 52.7 µM

Nc1nonc1-c1noc(-c2nonc2N)[n+]1[O-]
inactive: NCI/ADR-RES 69.2 µM | Malme-3M 20.4 µM | SK-MEL-28 > 100 µM | OVCAR-5 33.7 µM | HCC 2998 > 100 µM | PC-3 69.7 µM | MDA-MB-231 > 100 µM | HCT-116 > 100 µM | NCI-H23 77.4 µM | MDA-MB-435 57 µM | NCI-H522 13.1 µM | HOP-62 > 100 µM | HOP-92 69.8 µM | SF-268 > 100 µM | UO-31 42.9 µM | SNB-19 > 100 µM | MCF7 33.3 µM | NCI-H460 62.7 µM | A498 > 100 µM

CCOC1CC(C)N(C(=O)c2ccccc2)O1 (configuration not stated)
inactive: NCI/ADR-RES > 100 µM | Malme-3M > 10 µM | SK-MEL-28 > 100 µM | OVCAR-5 > 100 µM | HCC 2998 > 100 µM | PC-3 80.2 µM | MDA-MB-231 > 100 µM | HCT-116 > 100 µM | NCI-H23 > 100 µM | MDA-MB-435 > 100 µM | HOP-62 > 100 µM | HOP-92 31.7 µM | SF-268 > 100 µM | UO-31 > 100 µM | SNB-19 > 100 µM | SF-539 > 100 µM | MCF7 > 100 µM | NCI-H460 > 100 µM | A498 > 100 µM

Cc1ccccc1NC(=N)Nc1ccccc1C
inactive: NCI/ADR-RES > 100 µM | Malme-3M > 100 µM | SK-MEL-28 > 100 µM | OVCAR-5 > 100 µM | HCC 2998 21.9 µM | PC-3 > 100 µM | MDA-MB-231 > 100 µM | HCT-116 > 100 µM | NCI-H23 > 100 µM | MDA-MB-435 > 100 µM | NCI-H522 > 100 µM | HOP-62 > 100 µM | SF-268 > 100 µM | SNB-19 > 100 µM | SF-539 > 100 µM | MCF7 > 100 µM | NCI-H460 > 100 µM | A498 > 100 µM
